Assay results taken from US20200093764A1, “TREATMENT OF ASTHMA WITH CYSTEAMINE” (CHILDREN'S HOSPITAL MEDICAL CENTER, priority 2017, published 2020).

Assays:
Type in all cases: in vivo
[1] = system: WT BALB/c mice; test: Cysteamine vs. corticosteroid (dexamethasone) in HDM-induced asthma (Example 5)
Method: WT BALB/c mice underwent 6 intratracheal challenges to an allergen (e.g., HDM (25 μg)) to induce asthma development. Control mice underwent 6 intratracheal challenges to saline instead. When asthma was established, a subset of mice received cysteamine (50 mg/kg) treatment for seven days (on challenge days, mice received treatment 30 minutes prior to challenge). A subset of mice received corticosteroid (e.g., dexamethasone) treatment (3 mg/kg) during the last four days.
(§1) To determine the effectiveness of the treatment, airway responsiveness was measured as follows. 24 hours after the last challenge, invasive measurements were made with the FlexiVent apparatus (SCIREQ). Dynamic resistance was assessed after exposure to increasing concentrations of aerosolized methacholine (0, 12.5, and 50 mg/kg).
(§2) To observe Th2/Th17 cytokine production, lung cells were ex vivo stimulated with phorbol 12-myristate 13-acetate (PMA)+ionomycin (0.05 μg/mL and 0.50 m/mL, respectively) for an hour prior to the addition of Brefeldin-A for an additional two and a half hours. Cells were stained with combinations of CD4-FITC, γδT-cell receptor-PE/Cy7, CD3-AF700, CD44-Pacific Blue, and Live/dead-BV510. After fixation and premeabilization cells were intracellularly stained with IL-13-PE, IL-17A-AF647, IFN-γ-PerCP5.5. Image and data acquisition was done on a FACSCanto III and analyzed with FlowJo software.

[2] = Drug kinetics of cysteamine in mouse serum (Example 4)
Description: FIG. 4A is a table showing drug kinetics in mouse serum after administration of cysteamine. FIG. 4B is a chart showing the cysteamine concentrations in μmol/L over the time after the ends of cysteamine infusion in minutes.

[3] = system: WT BALB/c mice; test: Lower doses of cysteamine (Cystagon) to block allergen-induced asthma exacerbation (Example 3)
Method: Control mice underwent 9 intratracheal challenges to saline instead. Once asthma was established, a subset of mice received cysteamine (e.g., Cystagon®, which corresponds to cysteamine bitartrate) at various doses (6.25, 12.5, 25, or 50 mg/kg) or saline vehicle intraperitoneal (i.p.) treatment 3 times every day for 2 weeks. On the 14th day, all mice received a single HDM recall challenge. Mice received scheduled i.p. treatment prior to airway responsiveness measurement.
as §1, with “challenge” for “challenge,”, “(0, 6.25,” for “(0,”, “12.5, 25,” for “12.5,”
as §2, with “μg/mL,” for “m/mL,”, “2.5” for “two and a half”

[4] = system: WT BALB/c mice; test: Oral cysteamine treatment in HDM-induced asthma with recall challenge (Example 6)
Method: Control mice underwent 9 intratracheal challenges to saline instead. Once asthma was established, a subset of mice received cysteamine (6.25 or 12.5 mg/kg) or saline vehicle oral treatment 4 times a day for 2 weeks. On the 14th day, all mice received a single HDM recall challenge. Mice received scheduled oral treatment prior to airway responsiveness measurement. To determine the effectiveness of the treatment, airway responsiveness was measured as follows. 24 hours after the last challenge invasive measurements were made with the FlexiVent apparatus (SCIREQ). Dynamic resistance was assessed after exposure to increasing concentrations of aerosolized methacholine (0, 6.25, 12.5, 25, and 50 mg/kg). Bronchoalveolar lavage was performed by means of tracheal cannulation. Lungs were lavaged with 1 mL of 1×HBSS. The collected BALF was centrifuged, and total cell numbers counted with a hemocytometer. Lungs were removed, and the upper right lobe was minced and incubated at 37° C. for 30 minutes in 1 mL of RPMI 1640 containing Liberase TL (0.5 mg/mL) and DNAse I (0.5 mg/mL). Lung cells were passed through a 70-μm cell strainer with a syringe rubber, and the strainer was washed with 5 mL of RPMI plus DNAse I media. Cells were centrifuged and re-suspended in 1 mL of PBS plus 0.5% BSA plus 2 mmol/L EDTA before being counted on a hemocytometer.

[5] = system: WT BALB/c mice; test: Cysteamine therapeutic treatment after HDM-induced asthma is established (Example 2); details: cysteamine 50 mg/kg for seven days
Method: WT BALB/c mice underwent 6 intratracheal challenges to an allergen (e.g., HDM (25 μg)) to induce asthma development. Control mice underwent 6 intratracheal challenges to saline instead. The next day a subset of mice received cysteamine (50 mg/kg) treatment for seven days (on challenge days, mice received treatment 30 minutes prior to challenge). See FIG. 2A for the treatment and challenge protocol. The mice were sacrificed 24 hours after the last challenge.
as §1, with “([…]” for “(0,”, “[…]” for “50”
Bronchoalveolar lavage was performed by means of tracheal cannulation. Lungs were lavaged with 1 mL of 1×HBSS. The collected BALF was centrifuged, and total cell numbers were counted with a hemocytometer. Cells were spun onto slides and stained with the HEMA3 stain set. After the slides were cover slipped and de-identified, 200 cells were counted, and the total number of each cell type was calculated.
as §2, with “observe Th2, Th17, and Th1” for “observe Th2/Th17”, “additional 2.5” for “additional two and a half”, “and permeabilization” for “and premeabilization”, “Image an” for “Image and”

[6] = system: WT BALB/c and VNN1 KO mice; test: Prophylactic cysteamine treatment in HDM-challenged experimental asthma model (Example 1); details: for asthma development: cysteamine hydrochloride 50 mg/kg i.p. every day, HDM 25 μg i.t. 3 times a week for 3 weeks; for airway hyper-responsiveness (AHR) development: mice, oral or IP administration, methacholine challenge, FlexiVent dynamic resistance
Description: Steroid non-responsive mice (e.g., vanin 1 (VNN1) knock-out (KO) mice) and normal mice (e.g., wild type (WT) BALB/c mice) were used in an experimental asthma model. Since VNN1 KO mice lack tissue cysteamine, these mice were used to determine whether replacement of cysteamine would be sufficient to restore responsiveness to a steroid treatment.
WT BALB/c and VNN1 KO mice were started on cysteamine replacement treatment (e.g., as illustrated in FIG. 1A) one day prior to the start of intratracheal (i.t.) challenges. Mice then received one intraperitoneal (i.p.) injection of cysteamine hydrochloride (50 mg/kg) or saline every day. Mice were challenged 3 times a week for 3 weeks to an allergen (e.g., house dust mite (HDM, 25 μg in 50 μl saline)) or saline. A subset of mice from each group received a corticosteroid (e.g., dexamethasone (3 mg/kg)) treatment during the last 4 days of the experiment.
To determine the effectiveness of the treatment, airway responsiveness was measured as follows. 24 hours after the last challenge, invasive measurements were made with the FlexiVent apparatus (SCIREQ). Mice were anesthetized with ketamine, xylazine, and acepromazine (100, 20, and 10 mg/mL, respectively, mixed at a ratio of 4:1:1). Mouse tracheas were cannulated with a 19-gauge blunt needle, and the mice were ventilated at 150 breaths/min and 3.0 cm H2O positive end-expiratory pressure. Two total lung capacity perturbations were then performed for airway recruitment before baseline measurement, and subsequent methacholine challenges were performed. Dynamic resistance was assessed after exposure to increasing concentrations of aerosolized methacholine (0, 12.5 and 25 mg/mL). The average of the 3 highest dynamic resistance values with a coefficient of determination of 0.9 or greater (as determined by using FlexiVent software) was used to determine the dose-response curve.

[7] = mice with asthma, Cystagon i.p. for 2 weeks

In the case of NCCS [Cysteamine, 2-aminoethanethiol], the AHR ([1]; WT mice with asthma (6 i.t. HDM), cysteamine 50 mg/kg for seven days) is reported as “decreased AHR”, the “presence of Th1, Th2, and Th17 cells in the lungs” value ([1]; WT mice, cysteamine 50 mg/kg for seven days) is reported as “significantly decreased the presence of Th1, Th2, and Th17 cells” and the “difference between the cysteamine and dexamethasone treatment groups” value ([1]; cysteamine 50 mg/kg seven days vs dexamethasone 3 mg/kg last four days) is reported as “no significant differences”. For the same compound, the “cysteamine concentration in mouse serum in the time after infusion ended” value ([2]; mouse serum, after end of cysteamine infusion) was “rapidly degraded”, the half-life ([2]; stated in Example 3 results as reason for q.i.d. dosing) was “short half-life” and the “reducing AHR” value ([3]; 6.25 mg/kg dose, Cystagon i.p. for 2 weeks, HDM recall challenge) was “effective at reducing AHR”. The “dose at which maximal effectiveness on AHR was achieved” value ([3]; Cystagon i.p. for 2 weeks, doses tested 6.25, 12.5, 25, 50 mg/kg) was 12.5 mg/kg/day, the “presence of eosinophils and neutrophils in the bronchoalveolar lavage fluid” value ([3]; cysteamine at 6.25, 12.5, and 50 mg/kg, i.p. for 2 weeks) was “significantly decreased the presence of eosinophils and neutrophils” and the “blocking AHR” value ([3]; mice with asthma (9 i.t. HDM), Cystagon (cysteamine bitartrate) 6.25-50 mg/kg i.p. 3 times every day for 2 weeks, HDM recall challenge) was “effective at blocking AHR”. For the same compound, the airway inflammation [3, 7] was “reduced airway inflammation”, the “presence of pathogenic T effector populations (Th2/Th17) in the lungs” value [3, 7] was “significantly decreased the presence of pathogenic T effector populations (Th2/Th17)” and the AHR ([4]; WT mice with asthma (9 i.t. HDM), cysteamine 6.25 or 12.5 mg/kg oral 4 times a day for 2 weeks, HDM recall challenge) was “decreased AHR”. For the same compound, the “airway inflammation (BALF counts, lung cells)” value ([4]; WT mice with asthma, cysteamine 6.25 or 12.5 mg/kg oral 4 times a day for 2 weeks) was “decreased”, the “oral treatment compared with IP injection” value ([4]; oral cysteamine 6.25 or 12.5 mg/kg 4 times a day for 2 weeks) was “equivalent to IP injection” and the asthma occurrence ([5]; mice with asthma (6 i.t. HDM challenges)) was “significantly decrease asthma occurrence”. For the same compound, the airway inflammation ([5]; mice with asthma) was “reduced airway inflammation”, the “presence of eosinophils and neutrophils in the bronchoalveolar lavage fluid” value ([5]; mice with asthma) was “decreased the presence of eosinophils and neutrophils” and the “presence of pathogenic T effector populations (Th2/Th17) in the lungs” value ([5]; mice with asthma, flow cytometry after PMA+ionomycin) was “reduction in the presence of pathogenic T effector populations (Th2/Th17)”. The “airway hyper-responsiveness (AHR) development” value (shortened to “airway hyper-responsiveness”) ([5]; mice with asthma, methacholine challenge) was “blocked airway hyper-responsiveness (AHR) development”, the asthma development ([6]; VNN1 KO mice) was “significantly prevented asthma” and the “airway hyper-responsiveness” value [6] was “blocked airway hyper-responsiveness (AHR) development”. The asthma development ([6]; normal (WT BALB/c) mice) was “significantly prevented asthma”.

With NCCSSCCN [cystamine] the “airway hyper-responsiveness” value [6] was “blocked airway hyper-responsiveness (AHR) development”.
